Assay results as given in ChEMBL document CHEMBL1201861, “Genomics of Drug Sensitity in Cancer screening data, Wellcome Trust Sanger Institute”.

Tests used:
Test in all cases: cells
[1] = system: COLO-829; format: functional, cell-based, Homo sapiens; conditions: Homo sapiens, COLO-829
Description: SANGER: Inhibition of human COLO-829 cell growth in a cell viability assay.

[2] = system: CP50-MEL-B; format: functional, cell-based, Homo sapiens; conditions: Homo sapiens, CP50-MEL-B;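 further: growth inhibition of the human cell line, measured with a cell viability read-out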
Description: SANGER: Inhibition of human CP50-MEL-B cell growth in a cell viability assay.

[3] = system: CTV-1; format: functional, cell-based; conditions: Homo sapiens;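 further: growth inhibition of the cell line, read out with a cell viability assay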
Description: SANGER: Inhibition of human CTV-1 cell growth in a cell viability assay.

[4] = system: D-336MG; format: functional, cell-based, Homo sapiens; conditions: Homo sapiens, D-336MG
Description: SANGER: Inhibition of human D-336MG cell growth in a cell viability assay.

[5] = system: D-502MG; format: functional, cell-based, Homo sapiens; conditions: Homo sapiens, D-502MG
Description: SANGER: Inhibition of human D-502MG cell growth in a cell viability assay.

[6] = system: D-542MG; format: functional, cell-based, Homo sapiens; conditions: Homo sapiens, D-542MG
Description: SANGER: Inhibition of human D-542MG cell growth in a cell viability assay.

[7] = system: DU-4475; format: functional, cell-based; conditions: Homo sapiens
Description: SANGER: Inhibition of human DU-4475 cell growth in a cell viability assay.

[8] = system: EW-16; format: functional, cell-based, Homo sapiens; conditions: Homo sapiens, EW-16;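 further: growth inhibition of human EW-16 cells, read out as cell viability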
Description: SANGER: Inhibition of human EW-16 cell growth in a cell viability assay.

[9] = system: GI-ME-N; format: functional, cell-based, Homo sapiens; conditions: Homo sapiens, GI-ME-N;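 further: growth inhibition of human GI-ME-N cells, read out with a cell viability assay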
Description: SANGER: Inhibition of human GI-ME-N cell growth in a cell viability assay.

[10] = system: GOTO; format: functional, cell-based, Homo sapiens; conditions: Homo sapiens, GOTO;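 further: growth inhibition of GOTO cells, read out by a cell viability assay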
Description: SANGER: Inhibition of human GOTO cell growth in a cell viability assay.

[11] = system: HCC1395; format: functional, cell-based, Homo sapiens; conditions: Homo sapiens, HCC1395;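 further: growth inhibition of HCC1395 cells, read out by a cell viability assay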
Description: SANGER: Inhibition of human HCC1395 cell growth in a cell viability assay.

[12] = system: HLE; format: functional, cell-based, Homo sapiens; conditions: Homo sapiens, HLE;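 further: growth inhibition of human HLE cells, read out by a cell viability assay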
Description: SANGER: Inhibition of human HLE cell growth in a cell viability assay.

[13] = system: HOP-92; format: functional, cell-based, Homo sapiens; conditions: Homo sapiens, HOP-92;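 further: cell viability readout, with IC50 reflecting inhibition of HOP-92 cell growth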
Description: SANGER: Inhibition of human HOP-92 cell growth in a cell viability assay.

[14] = system: HSC-3; format: functional, cell-based, Homo sapiens; conditions: Homo sapiens, HSC-3
Description: SANGER: Inhibition of human HSC-3 cell growth in a cell viability assay.

[15] = system: HT-1376; format: functional, cell-based, Homo sapiens; conditions: Homo sapiens, HT-1376
Description: SANGER: Inhibition of human HT-1376 cell growth in a cell viability assay.

[16] = system: HTC-C3; format: functional, cell-based, Homo sapiens; conditions: Homo sapiens, HTC-C3;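 further: inhibition of cell growth, read out with a cell viability assay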
Description: SANGER: Inhibition of human HTC-C3 cell growth in a cell viability assay.

[17] = system: JVM-2; format: functional, cell-based; conditions: Homo sapiens;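 further: growth inhibition of JVM-2 cells determined by a cell viability assay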
Description: SANGER: Inhibition of human JVM-2 cell growth in a cell viability assay.

[18] = system: K562; format: functional, cell-based; conditions: Homo sapiens
Description: SANGER: Inhibition of human K-562 cell growth in a cell viability assay.

[19] = system: KNS-81-FD; format: functional, cell-based, Homo sapiens; conditions: Homo sapiens, KNS-81-FD;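 further: growth inhibition of KNS-81-FD cells, read out with a cell viability assay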
Description: SANGER: Inhibition of human KNS-81-FD cell growth in a cell viability assay.

[20] = system: KYSE-140; format: functional, cell-based, Homo sapiens; conditions: Homo sapiens, KYSE-140;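 further: cell viability assay measuring growth inhibition in human KYSE-140 cells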
Description: SANGER: Inhibition of human KYSE-140 cell growth in a cell viability assay.

[21] = system: KYSE-270; format: functional, cell-based, Homo sapiens; conditions: Homo sapiens, KYSE-270;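 further: cell growth inhibition measured with a viability assay in the human KYSE-270 line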
Description: SANGER: Inhibition of human KYSE-270 cell growth in a cell viability assay.

[22] = system: LB1047-RCC; format: functional, cell-based, Homo sapiens; conditions: Homo sapiens, LB1047-RCC;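 further: inhibition of cell growth, determined with a cell viability assay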
Description: SANGER: Inhibition of human LB1047-RCC cell growth in a cell viability assay.

[23] = system: MDA-MB-175-VII; format: functional, cell-based, Homo sapiens; conditions: Homo sapiens, MDA-MB-175-VII
[24] = system: ME-180; format: functional, cell-based; conditions: Homo sapiens;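 further: cell viability assay measuring growth inhibition of ME-180 cells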
Description: SANGER: Inhibition of human ME-180 cell growth in a cell viability assay.

[25] = system: MHH-NB-11; format: functional, cell-based, Homo sapiens; conditions: Homo sapiens, MHH-NB-11;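 further: growth inhibition of human MHH-NB-11 cells, read out by a cell viability assay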
Description: SANGER: Inhibition of human MHH-NB-11 cell growth in a cell viability assay.

[26] = system: MIA PaCa-2; format: functional, cell-based, Homo sapiens; conditions: Homo sapiens, MIA PaCa-2;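 further: growth inhibition of MIA PaCa-2 cells, read out with a cell viability assay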
Description: SANGER: Inhibition of human MIA-PaCa-2 cell growth in a cell viability assay.

[27] = system: MKN-45; format: functional, cell-based, Homo sapiens; conditions: Homo sapiens, MKN-45;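 further: growth inhibition of human MKN-45 cells, measured with a cell viability assay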
Description: SANGER: Inhibition of human MKN45 cell growth in a cell viability assay.

[28] = system: NB13; format: functional, cell-based, Homo sapiens; conditions: Homo sapiens, NB13;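 further: cell viability readout measuring growth inhibition of human NB13 cells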
Description: SANGER: Inhibition of human NB13 cell growth in a cell viability assay.

[29] = system: NCI-H1563; format: functional, cell-based, Homo sapiens; conditions: Homo sapiens, NCI-H1563;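 further: growth inhibition of human NCI-H1563 cells, read out with a cell viability assay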
Description: SANGER: Inhibition of human NCI-H1563 cell growth in a cell viability assay.

[30] = system: NCI-H1792; format: functional, cell-based, Homo sapiens; conditions: Homo sapiens, NCI-H1792;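 further: growth inhibition of human NCI-H1792 cells, read out as cell viability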
Description: SANGER: Inhibition of human NCI-H1792 cell growth in a cell viability assay.

[31] = system: SNU-5; format: functional, cell-based; conditions: Homo sapiens;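 further: cell viability readout used to measure growth inhibition in human NCI-SNU-5 cells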
Description: SANGER: Inhibition of human NCI-SNU-5 cell growth in a cell viability assay.

[32] = system: NMC-G1; format: functional, cell-based, Homo sapiens; conditions: Homo sapiens, NMC-G1;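 further: growth inhibition of the NMC-G1 cell line, measured with a cell viability read-out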
Description: SANGER: Inhibition of human NMC-G1 cell growth in a cell viability assay.

[33] = system: OE33; format: functional, cell-based, Homo sapiens; conditions: Homo sapiens, OE33;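 further: growth inhibition of human OE33 cells, measured by a cell viability assay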
Description: SANGER: Inhibition of human OE33 cell growth in a cell viability assay.

[34] = system: PANC-03-27; format: functional, cell-based, Homo sapiens; conditions: Homo sapiens, PANC-03-27
Description: SANGER: Inhibition of human PANC-03-27 cell growth in a cell viability assay.

[35] = system: PANC-08-13; format: functional, cell-based, Homo sapiens; conditions: Homo sapiens, PANC-08-13;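 further: cell growth inhibition, measured with a cell viability assay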
Description: SANGER: Inhibition of human PANC-08-13 cell growth in a cell viability assay.

[36] = system: RH-1; format: functional, cell-based, Homo sapiens; conditions: Homo sapiens, RH-1;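 further: growth inhibition of human RH-1 cells, read out with a cell viability assay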
Description: SANGER: Inhibition of human RH-1 cell growth in a cell viability assay.

[37] = system: RXF 393; format: functional, cell-based; conditions: Homo sapiens;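 further: growth inhibition of human RXF 393 cells, read out with a cell viability assay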
Description: SANGER: Inhibition of human RXF393 cell growth in a cell viability assay.

[38] = system: S-117; format: functional, cell-based, Homo sapiens; conditions: Homo sapiens, S-117
Description: SANGER: Inhibition of human S-117 cell growth in a cell viability assay.

[39] = system: SK-MEL-28; format: functional, cell-based; conditions: Homo sapiens;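 further: growth inhibition of human SK-MEL-28 cells, read out with a cell viability assay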
Description: SANGER: Inhibition of human SK-MEL-28 cell growth in a cell viability assay.

[40] = system: SNU-C2B; format: functional, cell-based, Homo sapiens; conditions: Homo sapiens, SNU-C2B;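 further: cell viability readout used to measure compound-driven suppression of SNU-C2B cell proliferation, IC50 marking half-maximal growth inhibition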
Description: SANGER: Inhibition of human SNU-C2B cell growth in a cell viability assay.

[41] = system: SW626; format: functional, cell-based, Homo sapiens; conditions: Homo sapiens, SW626;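 further: growth inhibition of SW626 cells, measured with a cell viability assay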
Description: SANGER: Inhibition of human SW626 cell growth in a cell viability assay.

[42] = system: 786-0; format: functional, cell-based, Homo sapiens; conditions: Homo sapiens
Description: SANGER: Inhibition of human 786-0 cell growth in a cell viability assay.

[43] = system: Becker; format: functional, cell-based, Homo sapiens; conditions: Homo sapiens, Becker;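 further: growth inhibition of Becker cells, read out with a cell viability assay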
Description: SANGER: Inhibition of human Becker cell growth in a cell viability assay.

[44] = system: C2BBe1; format: functional, cell-based, Homo sapiens; conditions: Homo sapiens, C2BBe1;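 further: growth inhibition of C2BBe1 cells, read out through a viability assay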
Description: SANGER: Inhibition of human C2BBe1 cell growth in a cell viability assay.

[45] = system: CAL-72; format: functional, cell-based, Homo sapiens; conditions: Homo sapiens, CAL-72;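 further: cell viability assay measuring inhibition of proliferation in the CAL-72 cell line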
Description: SANGER: Inhibition of human CAL-72 cell growth in a cell viability assay.

[46] = system: TE-11; format: functional, cell-based, Homo sapiens; conditions: Homo sapiens, TE-11;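 further: growth inhibition of human TE-11 cells, read out by a cell viability assay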
Description: SANGER: Inhibition of human TE-11 cell growth in a cell viability assay.

[47] = system: TGBC1TKB; format: functional, cell-based, Homo sapiens; conditions: Homo sapiens, TGBC1TKB;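 further: growth inhibition of TGBC1TKB cells, read out by a cell viability assay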
Description: SANGER: Inhibition of human TGBC1TKB cell growth in a cell viability assay.

[48] = system: TYK-nu; format: functional, cell-based, Homo sapiens; conditions: Homo sapiens, TYK-nu;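 further: growth inhibition of human TYK-nu cells, read out by a cell viability assay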
Description: SANGER: Inhibition of human TYK-nu cell growth in a cell viability assay.

[49] = system: UACC-62; format: functional, cell-based, Homo sapiens; conditions: Homo sapiens, UACC-62;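 further: growth inhibition of human UACC-62 cells, read out by a cell viability assay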
Description: SANGER: Inhibition of human UACC-62 cell growth in a cell viability assay.

`CCOc1nc(NC(=O)Cc2cc(OC)ccc2OC)cc(N)c1C#N` showed an IC50 [1] greater than 10 µM, an IC50 [2] greater than 10 µM and an IC50 [3] greater than 10 µM. The IC50 [4] was greater than 10 µM, the IC50 [5] was greater than 10 µM and the IC50 [6] was greater than 10 µM. For the same molecule, the IC50 [7] was greater than 10 µM, the IC50 [8] was greater than 10 µM and the IC50 [9] was greater than 10 µM. It also gave an IC50 [10] greater than 10 µM, an IC50 [11] greater than 10 µM and an IC50 [12] greater than 10 µM. For the same molecule, the IC50 [13] was greater than 10 µM, the IC50 [14] was greater than 10 µM and the IC50 [15] was greater than 10 µM. It also gave an IC50 [16] greater than 10 µM, an IC50 [17] greater than 10 µM and an IC50 [18] greater than 10 µM. For the same molecule, the IC50 [19] was greater than 10 µM, the IC50 [20] was greater than 10 µM and the IC50 [21] was greater than 10 µM. The IC50 [22] was greater than 10 µM, the IC50 [23] was greater than 10 µM and the IC50 [24] was greater than 10 µM. It also gave an IC50 [25] greater than 10 µM, an IC50 [26] greater than 10 µM and an IC50 [27] greater than 10 µM. The IC50 [28] was greater than 10 µM, the IC50 [29] was greater than 10 µM and the IC50 [30] was greater than 10 µM. For the same molecule, the IC50 [31] was greater than 10 µM, the IC50 [32] was greater than 10 µM and the IC50 [33] was greater than 10 µM. For the same molecule, the IC50 [34] was greater than 10 µM, the IC50 [35] was greater than 10 µM and the IC50 [36] was greater than 10 µM. The IC50 [37] was greater than 10 µM, the IC50 [38] was greater than 10 µM and the IC50 [39] was greater than 10 µM. The IC50 [40] was greater than 10 µM, the IC50 [41] was greater than 10 µM and the IC50 [42] was greater than 10 µM. It also gave an IC50 [43] greater than 10 µM, an IC50 [44] greater than 10 µM and an IC50 [45] greater than 10 µM. It also gave an IC50 [46] greater than 10 µM, an IC50 [47] greater than 10 µM and an IC50 [48] greater than 10 µM. It also gave an IC50 [49] greater than 10 µM.

In the case of `CC(=O)O[C@@H]1[C@@H](OC(C)=O)[C@@H](O)[C@H](Oc2c(-c3ccc(O)cc3)oc3cc(O)cc(O)c3c2=O)O[C@H]1C`, the IC50 [1] is reported as greater than 10 µM, the IC50 [2] is reported as greater than 10 µM and the IC50 [3] is reported as greater than 10 µM. It also gave an IC50 [4] greater than 10 µM, an IC50 [5] greater than 10 µM and an IC50 [6] greater than 10 µM. It also gave an IC50 [7] of 7.65 µM, an IC50 [8] greater than 10 µM and an IC50 [9] greater than 10 µM. For the same molecule, the IC50 [10] was greater than 10 µM, the IC50 [11] was greater than 10 µM and the IC50 [12] was greater than 10 µM. It also gave an IC50 [13] greater than 10 µM, an IC50 [14] greater than 10 µM and an IC50 [15] greater than 10 µM. For the same molecule, the IC50 [16] was greater than 10 µM, the IC50 [17] was greater than 10 µM and the IC50 [18] was greater than 10 µM. The IC50 [19] was greater than 10 µM, the IC50 [20] was greater than 10 µM and the IC50 [21] was greater than 10 µM. The IC50 [22] was greater than 10 µM, the IC50 [23] was greater than 10 µM and the IC50 [24] was greater than 10 µM. It also gave an IC50 [25] greater than 10 µM, an IC50 [26] greater than 10 µM and an IC50 [27] greater than 10 µM. For the same molecule, the IC50 [28] was greater than 10 µM, the IC50 [29] was greater than 10 µM and the IC50 [30] was greater than 10 µM. It also gave an IC50 [31] greater than 10 µM, an IC50 [32] greater than 10 µM and an IC50 [33] greater than 10 µM. For the same molecule, the IC50 [34] was greater than 10 µM, the IC50 [35] was greater than 10 µM and the IC50 [36] was greater than 10 µM. It also gave an IC50 [37] greater than 10 µM, an IC50 [38] greater than 10 µM and an IC50 [39] greater than 10 µM. It also gave an IC50 [40] greater than 10 µM, an IC50 [41] greater than 10 µM and an IC50 [42] greater than 10 µM. The IC50 [43] was greater than 10 µM, the IC50 [44] was greater than 10 µM and the IC50 [45] was 3.89 µM. For the same molecule, the IC50 [46] was greater than 10 µM, the IC50 [47] was greater than 10 µM and the IC50 [48] was greater than 10 µM. It also gave an IC50 [49] greater than 10 µM.
